For data set [1], the system named is HeLa cells. Kind of data set: MTT cytotoxicity assay, HeLa. It counts as cell-based, human. To be noted: Homo sapiens, HeLa; MTT, drug exposure 48 h, mean ± SD (n = 3); read-out: Cytotoxic activity (IC50) HeLa. As to the method:
(§1) Cytotoxicity of the podophyllum derivatives were determined by reading the absorbance at 492 nm on a multiplate reader (Thermo Fisher Scientific, Multiskan MK3). Cell cycle analysis and apoptosis analysis were analyzed by flow cytometry (Accuri C6, BD). Immunofluorescence images were recorded using laser scanning microscope (Perkin-Elmer & Olympus, UltraView VoX & Ix81). The gel for the decatenation of kDNA by Topoisomerase II study was photographed with UV illumination, Tanon 1600 (Tanon Science & Technology Co., Ltd., Shanghai). The nitrocellulose blotting membrane for western blot analysis was visualized using X-ray film processor and X-ray film, Fujifilm SUPER RX-N-C.
(§2) Cytotoxicity assay was performed on human lung adenocarcinoma epithelial cell line (A549), henrietta lacks strain of cancer cells (HeLa), human gastric carcinoma cell line (BGC 823), and normal human hepatocyte cell line (HL-7702). Cells (3500–13,000) in a 100 μL culture medium per well were seeded into 96-well microtest plates (Falcon, CA). A549 cell lines, HeLa cell lines and HL-7702 cell lines were cultured in DMEM supplemented with 10% CS, 100 mg/L penicillin G, 100 mg/L streptomycin. BGC 823 cell lines were cultured in RPMI medium 1640 supplemented with 10% CS, 100 mg/L penicillin G, and 100 mg/L streptomycin. The cells were incubated at 37 °C, in a humidified atmosphere with 5% CO2 for 48 h. For all cell lines, the microculture tetrazolium [3-(4, 5-dimethylthiazol-2-yl)-2, 5-diphenyltetrazolium bromide, MTT; Sigma, St. Louis, MO] assay was performed to measure the cytotoxic effects. Drug stock solutions (the each drug concentration was 0.5, 1, 10, 20, 50, 100, 200, and 500 μM, respectively) were prepared in DMSO and the final solvent concentration was ≤ 2% DMSO (v/v), a concentration without effect on cell replication. Initial seeding densities varied among the cell lines to ensure a final absorbance reading in control (untreated) cultures in the range 0.6–0.8 A492 units. Drug exposure was for 2 days, and the IC50 value, the drug concentration that reduced the absorbance by 50%, was interpolated from dose-response data. Each test was performed in triplicate, and absorbance readings varied no more than 5%. Data presented as means ± standard deviation (SD). Statistical analyses were performed by the analysis of variance (ANOVA). All statistical analyses were performed using Origin version 8.0 ([…], OriginLab Corp., Northampton, MA, USA). Sigmoidal dose responses and non-linear regression analyses were undertaken to identify half-maximal concentrations for each of the drugs. To evaluate differences in IC50 concentrations, analysis of variance combined with Tukey’s multiple range test was used.
Background: Formazan colour is commonly taken as a measure of viable cells.

Data set [2] has as its system BGC-823 cells. Put plainly: MTT cytotoxicity assay, BGC-823. It counts as cell-based, human. To be noted: Homo sapiens, BGC-823; MTT, drug exposure 48 h, mean ± SD (n = 3); read-out: Cytotoxic activity (IC50) BGC-823. As to the method: as §1, §2
Data set [3] relates to A549 cells. Put plainly: MTT cytotoxicity assay, A549. In kind it is cell-based, human. As to conditions: MTT, drug exposure 48 h, mean ± SD (n = 3), read-out: Cytotoxic activity (IC50) A549. As to the method:
as §1, §2

Data set [4] can be described thus: MTT cytotoxicity assay, normal hepatocyte HL-7702. It counts as cell-based. To be noted: HL-7702 cells (normal hepatocyte cell line), normal human hepatocyte cell line, drug exposure 48 h, mean ± SD (n = 3), read-out: Cytotoxic activity (IC50) HL-7702. As to the method:
as §1, §2

Where two headings read alike, the source gives them in different places.

In general, IC50 refers to the point on the concentration scale where inhibition reaches its midpoint.

As for `COc1cc([C@@H]2c3cc4c(cc3[C@@H](Nc3nncs3)[C@H]3COC(=O)[C@H]23)OCO4)cc(OC)c1O` [2′N, 4β-NH-(1,3,4-thiodizole-2)-4-deoxy-4′-demethyl-podophyllotoxin], the IC50 is 10.3 ± 0.41 µM in data set [1]; 15.4 ± 0.63 µM in data set [2]; 2.22 ± 0.31 µM in data set [3] (Homo sapiens, A549, 48 h). Further, in data set [4], the IC50 at 48 h was 28.7 ± 1.31 µM.
For `COc1cc([C@@H]2c3cc4c(cc3[C@@H](Nc3ccccn3)[C@H]3COC(=O)[C@H]23)OCO4)cc(OC)c1O` [3′N, 4β-NH-(pyridine-2)-4-deoxy-4′-demethyl-podophyllotoxin], in that order: 96.5 ± 7.64 µM, 111 ± 3.55 µM, 122 ± 4.6 µM and 122 ± 5.88 µM.
Taken in the same sequence, the figures for `COc1cc([C@@H]2c3cc4c(cc3[C@@H](Nc3ncccn3)[C@H]3COC(=O)[C@H]23)OCO4)cc(OC)c1O` [4′N, 4β-NH-(pyrimidine-2)-4-deoxy-4′-demethyl-podophyllotoxin] were 44.4 ± 2.37 µM, 64.2 ± 4.43 µM, 70.4 ± 3.92 µM and 41.8 ± 1.75 µM.
Turning to `COc1cc([C@@H]2c3cc4c(cc3[C@@H](Sc3ncccn3)[C@H]3COC(=O)[C@H]23)OCO4)cc(OC)c1O` [4′S, 4β-S-(pyrimidine-2)-4-deoxy-4′-demethyl-podophyllotoxin], the half-maximal inhibitory concentration (IC50) in data set [1] came to 12.92 ± 0.08 µM; in data set [2], 11.2 ± 0.35 µM; in data set [3] (Homo sapiens, A549, 48 h), 14 ± 1.66 µM. The half-inhibitory concentration (IC50) at 48 h in data set [4] turned out to be 140 ± 3.82 µM.
Taken in the same sequence, the figures for `COc1cc([C@@H]2c3cc4c(cc3[C@@H](Nc3nc5ccccc5s3)[C@H]3COC(=O)[C@H]23)OCO4)cc(OC)c1O` [5′N, 4β-NH-(benzothiazole-2)-4-deoxy-4′-demethyl-podophyllotoxin] were 5.65 ± 0.11 µM, 10.5 ± 0.45 µM, 14.2 ± 0.43 µM and 18.6 ± 1.48 µM.
Taken in the same sequence, the figures for `COc1cc([C@@H]2c3cc4c(cc3[C@@H](Sc3nc5ccccc5s3)[C@H]3COC(=O)[C@H]23)OCO4)cc(OC)c1O` [5′S, 4β-S-(benzothiazole-2)-4-deoxy-4′-demethyl-podophyllotoxin] were 1.71 ± 0.07 µM, 1.87 ± 0.36 µM, 8.25 ± 0.83 µM and 98.5 ± 3.51 µM.
Take `COc1cc([C@@H]2c3cc4c(cc3[C@@H](Nc3ncnc5nc[nH]c35)[C@H]3COC(=O)[C@H]23)OCO4)cc(OC)c1O` [6′N, 4β-NH-(purine-6)-4-deoxy-4′-demethylepipodophyllotoxin]: the IC50 in data set [1] worked out at 20.5 ± 0.38 µM; in data set [2] it was 43.2 ± 1.36 µM; in data set [3] (Homo sapiens, A549, 48 h) it was 15.7 ± 1.61 µM. In addition, the half-inhibitory concentration (IC50) at 48 h in data set [4] stood at 19.2 ± 1.31 µM.
With `COc1cc([C@@H]2c3cc4c(cc3[C@@H](Sc3ncnc5nc[nH]c35)[C@H]3COC(=O)[C@H]23)OCO4)cc(OC)c1O` [6′S, 4β-S-(purine-6)-4-deoxy-4′-demethyl-podophyllotoxin], the concentration for half-maximal inhibition (IC50) in data set [1] turned out to be 10.3 ± 0.41 µM; in data set [2], 45 ± 3.68 µM; in data set [3] (Homo sapiens, A549, 48 h), 7.45 ± 0.18 µM. Further, the IC50 at 48 h in data set [4] came to 27.5 ± 2.35 µM.
`COc1cc([C@@H]2c3cc4c(cc3[C@@H](Nc3nncs3)[C@H]3COC(=O)[C@H]23)OCO4)cc(OC)c1OC` [Compound 2N, 4β-NH-(1,3,4-thiodiazole-2)-4-deoxy-podophyllotoxin]: the IC50 in data set [1] came out at 6.33 ± 0.36 µM; in data set [2], 2.33 ± 0.24 µM; in data set [3] (Homo sapiens, A549, 48 h), 12.5 ± 0.55 µM. Besides, the 50% inhibitory concentration (IC50) at 48 h in data set [4] was 18.7 ± 3.19 µM.
With `COc1cc([C@@H]2c3cc4c(cc3[C@@H](Sc3nncs3)[C@H]3COC(=O)[C@H]23)OCO4)cc(OC)c1OC` [Compound 2S], the IC50 in data set [1] was 1.25 ± 0.36 µM; in data set [2], 0.31 ± 0.02 µM; in data set [3] (Homo sapiens, A549, 48 h) it was 1.26 ± 0.1 µM. The IC50 at 48 h in data set [4] was found to be 36.2 ± 3.81 µM.
Taken in the same sequence, the figures for `COc1cc([C@@H]2c3cc4c(cc3[C@@H](Nc3ccccn3)[C@H]3COC(=O)[C@H]23)OCO4)cc(OC)c1OC` [Compound 3N, 4β-NH-(pyridine-2)-4-deoxy-podophyllotoxin] were 13.7 ± 2.13 µM, 14.3 ± 3.22 µM, 28.2 ± 2.58 µM and 28.2 ± 2.58 µM.
For `COc1cc([C@@H]2c3cc4c(cc3[C@@H](Sc3ccccn3)[C@H]3COC(=O)[C@H]23)OCO4)cc(OC)c1OC` [Compound 3S, 4β-S-(pyridine-2)-4-deoxy-podophyllotoxin], in that order: 0.9 ± 0.03 µM, 1.09 ± 0.06 µM, 19.1 ± 1.52 µM and 89.7 ± 2.45 µM.
On to `COc1cc([C@@H]2c3cc4c(cc3[C@@H](Nc3ncccn3)[C@H]3COC(=O)[C@H]23)OCO4)cc(OC)c1OC` [Compound 4N, 4β-NH-(pyrimidine-2)-4-deoxy-podophyllotoxin], for which the IC50 amounted to 26.4 ± 1.52 µM in data set [1]; 63.6 ± 3.77 µM in data set [2]; 59.6 ± 3.48 µM in data set [3] (Homo sapiens, A549, 48 h). Also, the IC50 at 48 h in data set [4] stood at 47.3 ± 2.71 µM.
Taken in the same sequence, the figures for `COc1cc([C@@H]2c3cc4c(cc3[C@@H](Sc3ncccn3)[C@H]3COC(=O)[C@H]23)OCO4)cc(OC)c1OC` [Compound 4S, 4β-S-(pyrimidine-2)-4-deoxy-podophyllotoxin] were 3.64 ± 0.46 µM, 0.49 ± 0.01 µM, 2.4 ± 0.76 µM and 51.1 ± 3.17 µM.
Taken in the same sequence, the figures for `COc1cc([C@@H]2c3cc4c(cc3[C@@H](Nc3nc5ccccc5s3)[C@H]3COC(=O)[C@H]23)OCO4)cc(OC)c1OC` [Compound 5N] were 2.32 ± 0.28 µM, 13.2 ± 0.86 µM, 15.2 ± 0.43 µM and 5.33 ± 0.14 µM.
For `COc1cc([C@@H]2c3cc4c(cc3[C@@H](Sc3nc5ccccc5s3)[C@H]3COC(=O)[C@H]23)OCO4)cc(OC)c1OC` [Compound 5S, 4β-S-(benzothiazole-2)-4-deoxy-podophyllotoxin], in that order: 0.97 ± 0.12 µM, 1.04 ± 0.13 µM, 11.1 ± 1.71 µM and 31.8 ± 1.62 µM.
As for `COc1cc([C@@H]2c3cc4c(cc3[C@@H](Nc3ncnc5nc[nH]c35)[C@H]3COC(=O)[C@H]23)OCO4)cc(OC)c1OC` [Compound 6N], the IC50 in data set [1] is 5.85 ± 0.36 µM; in data set [2], 12.5 ± 1.35 µM; in data set [3] (Homo sapiens, A549, 48 h), 3.72 ± 0.11 µM. Besides, the IC50 at 48 h in data set [4] is 13.6 ± 1.26 µM.
Taken in the same sequence, the figures for `COc1cc([C@@H]2c3cc4c(cc3[C@@H](Sc3ncnc5nc[nH]c35)[C@H]3COC(=O)[C@H]23)OCO4)cc(OC)c1OC` [Compound 6S, 4β-S-(purine-6)-4-deoxy-podophyllotoxin] were 1.21 ± 0.13 µM, 11.3 ± 1.71 µM, 0.57 ± 0.22 µM and 20.6 ± 1.38 µM.
Consider `COc1cc([C@@H]2c3cc4c(cc3[C@@H](O[C@@H]3O[C@@H]5CO[C@@H](C)O[C@H]5[C@H](O)[C@H]3O)[C@H]3COC(=O)[C@H]23)OCO4)cc(OC)c1O` [etoposide, reference compound], for which the IC50 in data set [1] came out at 59.4 ± 2.45 µM; in data set [2] it was 20.5 ± 2.55 µM; in data set [3], 20.1 ± 1.95 µM. In addition, the IC50 at 48 h in data set [4] was determined as 24.6 ± 3.82 µM.

Source of the values: paper PMC4595834, “Comparison of carbon-sulfur and carbon-amine bond in therapeutic drug: 4β-S-aromatic heterocyclic podophyllum derivatives display antitumor activity” (Scientific Reports, 2015).
